# Experimental data published in ChEMBL document CHEMBL1201862, “PubChem BioAssay data set” (2004).
#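 Exposure lasted 48 hours, with cells grown in 96-well plates and compounds tested at five concentrations. GI50 is the concentration that inhibits growth by half.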 Activity calls are given as the source filed them. No stated cut-off is given here; in the data, active = GI50 up to about 1.1 µM and inactive = higher.
# Assays:
# Assay in all cases: NCI anticancer screen, dose series, 48 h
# [1] = tested on: HCC 2998
# [2] = tested on: SF-295
# [3] = tested on: KM-20L2
# [4] = tested on: SK-OV-3
# [5] = tested on: OVCAR-3
# [6] = tested on: TK-10
# [7] = tested on: EKVX
# [8] = tested on: UO-31
# [9] = tested on: K562
# [10] = tested on: COLO 205
# [11] = tested on: A549
# [12] = tested on: 786-0
# [13] = tested on: NCI-H522
# [14] = tested on: UACC-62
# [15] = tested on: M19-MEL
# [16] = tested on: OVCAR-4
# [17] = tested on: HT-29
# [18] = tested on: SNB-75
# [19] = tested on: UACC-257
# [20] = tested on: NCI-H23
# [21] = tested on: HCT-15
# [22] = tested on: HOP-92
# [23] = tested on: SR
# [24] = tested on: SNB-78
# [25] = tested on: A498
# [26] = tested on: M14
# [27] = tested on: NCI-H460
# [28] = tested on: SF-539
# [29] = tested on: HOP-62
# [30] = tested on: LOX IMVI
# [31] = tested on: RXF 393
# [32] = tested on: HCT-116
# [33] = tested on: SK-MEL-2
# [34] = tested on: HOP-18
# [35] = tested on: LXFL 529
# [36] = tested on: MOLT-4
# [37] = tested on: HL-60
# [38] = tested on: SK-MEL-5
# [39] = tested on: OVCAR-5
# [40] = tested on: SK-MEL-28
# [41] = tested on: XF498
# [42] = tested on: KM12
# [43] = tested on: DLD-1
# [44] = tested on: SF-268
# [45] = tested on: SW-620
# [46] = tested on: U-251
# [47] = tested on: Malme-3M
# [48] = tested on: CAKI-1
# [49] = tested on: OVCAR-8
# [50] = tested on: DMS-273
# [51] = tested on: IGROV-1
# [52] = tested on: SN12C
# [53] = tested on: SNB-19
# [54] = tested on: CCRF-CEM
# [55] = tested on: ACHN
# [56] = tested on: NCI-H226
# [57] = tested on: RPMI-8226
# [58] = tested on: DMS-114
smiles,measurement,setting,value
CC(=S)NNC(=O)c1ccncc1,GI50,[1],> 100 µM (inactive)
same,GI50,[2],> 100 µM (inactive)
same,GI50,[3],> 100 µM (inactive)
same,GI50,[4],> 100 µM (inactive)
same,GI50,[5],> 100 µM (inactive)
same,GI50,[6],> 100 µM (inactive)
same,GI50,[7],> 100 µM (inactive)
same,GI50,[8],> 100 µM (inactive)
same,GI50,[9],> 100 µM (inactive)
same,GI50,[10],> 100 µM (inactive)
same,GI50,[11],> 100 µM (inactive)
same,GI50,[12],> 100 µM (inactive)
same,GI50,[13],> 100 µM (inactive)
same,GI50,[14],> 100 µM (inactive)
same,GI50,[15],> 100 µM (inactive)
same,GI50,[16],> 100 µM (inactive)
same,GI50,[17],> 100 µM (inactive)
same,GI50,[18],> 100 µM (inactive)
same,GI50,[19],> 100 µM (inactive)
same,GI50,[20],> 100 µM (inactive)
same,GI50,[21],> 100 µM
same,GI50,[22],> 100 µM (inactive)
same,GI50,[23],> 100 µM (inactive)
same,GI50,[24],> 100 µM (inactive)
same,GI50,[25],> 100 µM (inactive)
same,GI50,[26],> 100 µM (inactive)
same,GI50,[27],> 100 µM (inactive)
same,GI50,[28],> 100 µM (inactive)
same,GI50,[29],> 100 µM (inactive)
same,GI50,[30],> 100 µM (inactive)
same,GI50,[31],> 100 µM (inactive)
same,GI50,[32],> 100 µM (inactive)
same,GI50,[33],> 100 µM (inactive)
same,GI50,[34],> 100 µM (inactive)
same,GI50,[35],> 100 µM (inactive)
same,GI50,[36],> 100 µM (inactive)
same,GI50,[37],> 100 µM (inactive)
same,GI50,[38],> 100 µM (inactive)
same,GI50,[39],> 100 µM (inactive)
same,GI50,[40],> 100 µM (inactive)
same,GI50,[41],> 100 µM (inactive)
same,GI50,[42],> 100 µM (inactive)
same,GI50,[43],> 100 µM (inactive)
same,GI50,[44],> 100 µM (inactive)
same,GI50,[45],> 100 µM (inactive)
same,GI50,[46],> 100 µM (inactive)
same,GI50,[47],> 100 µM (inactive)
same,GI50,[48],> 100 µM (inactive)
same,GI50,[49],> 100 µM (inactive)
same,GI50,[50],> 100 µM (inactive)
same,GI50,[51],> 100 µM (inactive)
same,GI50,[52],> 100 µM (inactive)
same,GI50,[53],> 100 µM (inactive)
same,GI50,[54],> 100 µM (inactive)
same,GI50,[55],> 100 µM (inactive)
same,GI50,[56],> 100 µM (inactive)
CC1(C)C(=O)N(CCCCCCN2C(=O)C(C)(C)c3ccccc32)c2ccccc21,GI50,[1],71.6 µM (inactive)
same,GI50,[2],44.1 µM (inactive)
same,GI50,[3],37.2 µM (inactive)
same,GI50,[57],23 µM (inactive)
same,GI50,[4],> 100 µM (inactive)
same,GI50,[5],28 µM (inactive)
same,GI50,[6],58.3 µM (inactive)
same,GI50,[7],38.1 µM (inactive)
same,GI50,[8],31.2 µM (inactive)
same,GI50,[9],22.6 µM (inactive)
same,GI50,[10],22.1 µM (inactive)
same,GI50,[11],43.4 µM (inactive)
same,GI50,[12],18.2 µM (inactive)
same,GI50,[14],22.9 µM (inactive)
same,GI50,[15],22.6 µM (inactive)
same,GI50,[16],23.4 µM (inactive)
same,GI50,[17],19 µM (inactive)
same,GI50,[18],39.1 µM (inactive)
same,GI50,[19],21.8 µM (inactive)
same,GI50,[20],42.6 µM (inactive)
same,GI50,[21],34.3 µM
same,GI50,[22],42.8 µM (inactive)
same,GI50,[24],96.4 µM (inactive)
same,GI50,[25],> 100 µM (inactive)
same,GI50,[26],24.6 µM (inactive)
same,GI50,[27],54.3 µM (inactive)
same,GI50,[58],21.6 µM (inactive)
same,GI50,[28],> 100 µM (inactive)
same,GI50,[29],80.7 µM (inactive)
same,GI50,[30],22 µM (inactive)
same,GI50,[32],21 µM (inactive)
same,GI50,[33],48.6 µM (inactive)
same,GI50,[34],81.1 µM (inactive)
same,GI50,[35],39.1 µM (inactive)
same,GI50,[36],33.8 µM (inactive)
same,GI50,[37],2.04 µM (inactive)
same,GI50,[38],18.6 µM (inactive)
same,GI50,[39],80.5 µM (inactive)
same,GI50,[40],47.2 µM (inactive)
same,GI50,[41],16.5 µM (inactive)
same,GI50,[42],37.9 µM (inactive)
same,GI50,[44],60.8 µM (inactive)
same,GI50,[45],14.7 µM (inactive)
same,GI50,[46],36.6 µM (inactive)
same,GI50,[47],25.9 µM (inactive)
same,GI50,[48],62.4 µM (inactive)
same,GI50,[49],51.3 µM (inactive)
same,GI50,[50],40.9 µM (inactive)
same,GI50,[51],88.3 µM (inactive)
same,GI50,[52],59.7 µM (inactive)
same,GI50,[53],68.5 µM (inactive)
same,GI50,[54],22.4 µM (inactive)
same,GI50,[55],25.6 µM (inactive)
same,GI50,[56],26.3 µM (inactive)
CCCCCCCCCCCCCCCCCC(=O)OCC1OC(OC)C(NC(=O)N(CCCl)N=O)C(O)C1O (stereo not drawn),GI50,[1],29 µM (inactive)
same,GI50,[2],14.9 µM (inactive)
same,GI50,[3],> 10 µM (inactive)
same,GI50,[57],20.3 µM (inactive)
same,GI50,[5],26.9 µM (inactive)
same,GI50,[6],38.3 µM (inactive)
same,GI50,[8],24.3 µM (inactive)
same,GI50,[9],24.6 µM (inactive)
same,GI50,[10],30.3 µM (inactive)
same,GI50,[11],18.1 µM (inactive)
same,GI50,[13],17.1 µM (inactive)
same,GI50,[14],2.99 µM (inactive)
same,GI50,[15],71.4 µM (inactive)
same,GI50,[16],24 µM (inactive)
same,GI50,[17],20.9 µM (inactive)
same,GI50,[18],13.8 µM (inactive)
same,GI50,[19],16.8 µM (inactive)
same,GI50,[20],16.4 µM (inactive)
same,GI50,[21],36.1 µM
same,GI50,[23],9.04 µM (inactive)
same,GI50,[24],40.4 µM (inactive)
same,GI50,[26],27.8 µM (inactive)
same,GI50,[27],5.96 µM (inactive)
same,GI50,[28],9.86 µM (inactive)
same,GI50,[29],> 100 µM (inactive)
same,GI50,[30],13.6 µM (inactive)
same,GI50,[31],17 µM (inactive)
same,GI50,[33],45.9 µM (inactive)
same,GI50,[34],32.6 µM (inactive)
same,GI50,[35],17.3 µM (inactive)
same,GI50,[36],4.41 µM (inactive)
same,GI50,[38],26.3 µM (inactive)
same,GI50,[39],44.2 µM (inactive)
same,GI50,[40],21.6 µM (inactive)
same,GI50,[41],20.7 µM (inactive)
same,GI50,[42],24.8 µM (inactive)
same,GI50,[43],28.1 µM (inactive)
same,GI50,[44],8.3 µM (inactive)
same,GI50,[45],14.1 µM (inactive)
same,GI50,[46],> 10 µM (inactive)
same,GI50,[47],26.1 µM (inactive)
same,GI50,[48],> 100 µM (inactive)
same,GI50,[49],33.5 µM (inactive)
same,GI50,[50],16 µM (inactive)
same,GI50,[51],32.5 µM (inactive)
same,GI50,[52],11.4 µM (inactive)
same,GI50,[53],24.9 µM (inactive)
same,GI50,[55],15.7 µM (inactive)
same,GI50,[56],24.9 µM (inactive)
CC1COC(C)(C)P(=O)(c2ccccc2)C1 (stereo not drawn),GI50,[1],> 100 µM (inactive)
same,GI50,[2],> 100 µM (inactive)
same,GI50,[3],> 100 µM (inactive)
same,GI50,[57],> 100 µM (inactive)
same,GI50,[4],> 100 µM (inactive)
same,GI50,[5],> 100 µM (inactive)
same,GI50,[6],> 100 µM (inactive)
same,GI50,[7],> 100 µM (inactive)
same,GI50,[8],> 100 µM (inactive)
same,GI50,[9],> 100 µM (inactive)
same,GI50,[10],> 100 µM (inactive)
same,GI50,[11],> 100 µM (inactive)
same,GI50,[12],> 100 µM (inactive)
same,GI50,[13],> 100 µM (inactive)
same,GI50,[14],> 100 µM (inactive)
same,GI50,[15],> 100 µM (inactive)
same,GI50,[17],> 100 µM (inactive)
same,GI50,[18],49.4 µM (inactive)
same,GI50,[19],> 100 µM (inactive)
same,GI50,[20],> 100 µM (inactive)
same,GI50,[21],> 100 µM
same,GI50,[23],> 100 µM (inactive)
same,GI50,[24],> 100 µM (inactive)
same,GI50,[25],> 100 µM (inactive)
same,GI50,[26],> 100 µM (inactive)
same,GI50,[27],> 100 µM (inactive)
same,GI50,[58],> 100 µM (inactive)
same,GI50,[28],> 100 µM (inactive)
same,GI50,[29],> 100 µM (inactive)
same,GI50,[30],> 100 µM (inactive)
same,GI50,[31],> 100 µM (inactive)
same,GI50,[32],> 100 µM (inactive)
same,GI50,[33],> 100 µM (inactive)
same,GI50,[34],> 100 µM (inactive)
same,GI50,[35],> 100 µM (inactive)
same,GI50,[36],> 100 µM (inactive)
same,GI50,[37],> 100 µM (inactive)
same,GI50,[38],> 100 µM (inactive)
same,GI50,[39],> 100 µM (inactive)
same,GI50,[40],> 100 µM (inactive)
same,GI50,[41],> 100 µM (inactive)
same,GI50,[42],> 100 µM (inactive)
same,GI50,[43],> 100 µM (inactive)
same,GI50,[45],> 100 µM (inactive)
same,GI50,[46],> 100 µM (inactive)
same,GI50,[47],> 100 µM (inactive)
same,GI50,[49],> 100 µM (inactive)
same,GI50,[50],> 100 µM (inactive)
same,GI50,[51],> 100 µM (inactive)
same,GI50,[52],> 100 µM (inactive)
same,GI50,[53],> 100 µM (inactive)
same,GI50,[54],> 100 µM (inactive)
same,GI50,[55],> 100 µM (inactive)
same,GI50,[56],> 100 µM (inactive)
